Experimental findings from BindingDB's records for doi:10.1021/jm701383e (Merck Serono, 2008) are described below.

Molecules are shown by their SMILES. pEC50, pIC50, pKi: −log10 of the molar value.

The target in the first test is T1, Prostaglandin D2 receptor 2 (Homo sapiens, UniProt Q9Y5Y4).
T1 sequence (Q9Y5Y4 whole entry): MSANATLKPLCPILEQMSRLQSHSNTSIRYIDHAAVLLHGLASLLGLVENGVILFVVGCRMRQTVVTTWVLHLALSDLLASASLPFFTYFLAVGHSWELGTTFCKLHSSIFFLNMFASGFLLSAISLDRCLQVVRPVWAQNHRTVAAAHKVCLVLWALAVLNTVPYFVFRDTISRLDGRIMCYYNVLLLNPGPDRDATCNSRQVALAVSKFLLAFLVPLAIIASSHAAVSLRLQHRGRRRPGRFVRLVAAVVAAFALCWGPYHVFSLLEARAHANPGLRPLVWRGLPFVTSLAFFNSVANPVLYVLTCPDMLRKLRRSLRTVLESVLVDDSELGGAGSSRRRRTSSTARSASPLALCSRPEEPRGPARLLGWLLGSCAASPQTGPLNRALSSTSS
As to the kind of experiment: Radioligand Binding Assay and [35S] GTP-gamma-S Binding Assay.
Conditions: not given
As to the method:
(§1) A scintillation proximity assay was used for radioligand competition and saturation binding assays. Nonspecific binding was determined in the presence of 1 uM PGD2. Binding activity was determined by using a 1450 Microbeta scintillation counter (Wallac, UK). Ki values were calculated by using the Cheng-Prusoff equation, and represent the average of at least three independent dose-response experiments. EC50/IC50 values were obtained from GTP-gamma-S binding assay, which measures antagonist activity of compounds in the presence of 80 nM PGD2.
Background: GTPγS is a poorly hydrolysed GTP analogue; its binding reports G protein activation.
A word on the pKi: it is the Ki on a negative log10 scale, so that one unit is a factor of ten. Low values mean a high Ki, high ones a low Ki. For `O=C(O)CN1C(=O)[C@]2(CC(=O)N(Cc3cc(Cl)ccc3F)C2)c2cc(Cl)ccc21` [2-[(3R)-5-chloro-1'-[(5-chloro-2-fluorophenyl)methyl]-1,2-dihydrospiro[indole-3,3'-pyrrolidine]-2,5'-dione]acetic acid], the pKi is 6.17.

`O=C(O)CN1C(=O)[C@@]2(CC(=O)N(Cc3cc(Cl)ccc3F)C2)c2cc(Cl)ccc21` [2-[(3S)-5-chloro-1'-[(5-chloro-2-fluorophenyl)methyl]-1,2-dihydrospiro[indole-3,3'-pyrrolidine]-2,5'-dione]acetic acid] gave a negative logarithm of the Ki (pKi) of 7.89.

The test is the same for the next values; noted with them: pH 7.4; 22 °C.
What is called pIC50 is −log10 of the IC50, conventionally taken in molar units. Read a high pIC50 as a small IC50. `O=C(O)CN1C(=O)C2(CC(=O)N(Cc3ccccc3F)C2=O)c2cc(Cl)ccc21` (configuration not stated) [2-{5-chloro-1'-[(2-fluorophenyl)methyl]-1,2-dihydrospiro[indole-3,3'-pyrrolidine]-2,2',5'-trione}acetic acid] showed a negative-log IC50 (pIC50) of 6.67.

For `O=C(O)CN1C(=O)C2(CC(=O)N(Cc3cccc(Cl)c3)C2=O)c2cc(Cl)ccc21` (configuration not stated) [2-{5-chloro-1'-[(3-chlorophenyl)methyl]-1,2-dihydrospiro[indole-3,3'-pyrrolidine]-2,2',5'-trione}acetic acid], the pIC50 is 6.91.

The molecule `O=C(O)CN1C(=O)C2(CC(=O)N(Cc3ccc(F)cc3)C2=O)c2cc(Cl)ccc21` (configuration not stated) [2-{5-chloro-1'-[(4-fluorophenyl)methyl]-1,2-dihydrospiro[indole-3,3'-pyrrolidine]-2,2',5'-trione}acetic acid] gave a pIC50 of 6.74.

As to `O=C(O)CN1C(=O)C2(CC(=O)N(Cc3ccccc3)C2=O)c2cc(Cl)ccc21` (configuration not stated) [2-{1'-benzyl-5-chloro-1,2-dihydrospiro[indole-3,3'-pyrrolidine]-2,2',5'-trione}acetic acid], the negative logarithm of the IC50 (pIC50) is 6.38.

For another test, the target named is T2, Prostaglandin D2 receptor 2 (Mus musculus, UniProt Q9Z2J6).
T2 sequence (Q9Z2J6 whole entry): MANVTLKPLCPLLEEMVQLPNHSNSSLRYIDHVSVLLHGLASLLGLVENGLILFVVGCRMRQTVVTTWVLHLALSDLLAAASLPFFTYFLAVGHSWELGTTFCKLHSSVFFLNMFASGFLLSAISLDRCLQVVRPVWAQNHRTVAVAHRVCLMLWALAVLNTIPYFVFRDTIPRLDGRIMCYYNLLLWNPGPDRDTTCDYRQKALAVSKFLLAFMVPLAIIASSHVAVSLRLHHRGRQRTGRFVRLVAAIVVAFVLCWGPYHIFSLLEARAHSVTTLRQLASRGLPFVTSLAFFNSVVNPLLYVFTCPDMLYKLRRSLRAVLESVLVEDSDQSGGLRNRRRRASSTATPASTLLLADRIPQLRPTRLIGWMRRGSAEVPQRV
The description is as above.
Conditions: not given
As to the method: as §1
Turning to `O=C(O)CN1C(=O)[C@@]2(CC(=O)N(Cc3cc(Cl)ccc3F)C2)c2cc(Cl)ccc21` [2-[(3S)-5-chloro-1'-[(5-chloro-2-fluorophenyl)methyl]-1,2-dihydrospiro[indole-3,3'-pyrrolidine]-2,5'-dione]acetic acid], the negative logarithm of the Ki (pKi) was 7.06.

For a further test, the target named is T1, Prostaglandin D2 receptor 2. As to the kind of experiment: Radioligand Binding Assay.
Conditions: not given
As usually defined, the pEC50 is the negative decadic logarithm of the EC50, by convention in mol/L. Read a low pEC50 as a high EC50. As for `Cc1noc(C)c1CN1C(=O)CC2(C1=O)C(=O)N(CC(=O)O)c1ccc(Cl)cc12` (configuration not stated) [2-{5-chloro-1'-[(3,5-dimethyl-1,2-oxazol-4-yl)methyl]-1,2-dihydrospiro[indole-3,3'-pyrrolidine]-2,2',5'-trione}acetic acid], the pEC50 is 6.66.

With `O=C(O)CN1C(=O)C2(CC(=O)N(Cc3cc(Cl)cc(Cl)c3)C2=O)c2cc(Cl)ccc21` (configuration not stated) [2-{5-chloro-1'-[(3,5-dichlorophenyl)methyl]-1,2-dihydrospiro[indole-3,3'-pyrrolidine]-2,2',5'-trione}acetic acid], the negative-log EC50 (pEC50) was 7.09.

As for `Cc1onc(-c2ccccc2)c1CN1C(=O)CC2(C1=O)C(=O)N(CC(=O)O)c1ccc(Cl)cc12` (configuration not stated) [2-{5-chloro-1'-[(5-methyl-3-phenyl-1,2-oxazol-4-yl)methyl]-1,2-dihydrospiro[indole-3,3'-pyrrolidine]-2,2',5'-trione}acetic acid], the pEC50 was 7.68.

For the molecule `O=C(O)CN1C(=O)[C@@]2(CC(=O)N(Cc3cc(Cl)ccc3F)C2=O)c2cc(Cl)ccc21` [2-[(3R)-5-chloro-1'-[(5-chloro-2-fluorophenyl)methyl]-1,2-dihydrospiro[indole-3,3'-pyrrolidine]-2,2',5'-trione]acetic acid], the pEC50 is 7.18.

On to `Cc1noc(-c2ccccc2)c1CN1CC2(CC1=O)C(=O)N(CC(=O)O)c1ccc(Cl)cc12` (configuration not stated) [2-{5-chloro-1'-[(3-methyl-5-phenyl-1,2-oxazol-4-yl)methyl]-1,2-dihydrospiro[indole-3,3'-pyrrolidine]-2,5'-dione}acetic acid], for which the negative logarithm of the EC50 (pEC50) is 7.72.

On to `O=C(O)CN1C(=O)[C@@]2(CC(=O)N(Cc3cccc(Cl)c3)C2=O)c2cc(Cl)ccc21` [2-[(3R)-5-chloro-1'-[(3-chlorophenyl)methyl]-1,2-dihydrospiro[indole-3,3'-pyrrolidine]-2,2',5'-trione]acetic acid], for which the pEC50 is 6.97. This pEC50 lies 0.75 log units lower than the previous one.

`O=C(O)CN1C(=O)C2(CC(=O)N(Cc3csc(-c4cccc(Cl)c4)n3)C2=O)c2cc(Cl)ccc21` (configuration not stated) [2-(5-chloro-1'-{[2-(3-chlorophenyl)-1,3-thiazol-4-yl]methyl}-1,2-dihydrospiro[indole-3,3'-pyrrolidine]-2,2',5'-trione)acetic acid] gave a pEC50 of 7.32. Against the preceding molecule, the pEC50 is 0.35 log units higher.

Turning to `O=C(O)CN1C(=O)C2(CC(=O)N(Cc3cc(Cl)ccc3F)C2=O)c2cc(Cl)ccc21` (configuration not stated) [2-{5-chloro-1'-[(5-chloro-2-fluorophenyl)methyl]-1,2-dihydrospiro[indole-3,3'-pyrrolidine]-2,2',5'-trione}acetic acid], the pEC50 was 7.32.

`Cc1noc(-c2ccccc2)c1CN1C(=O)CC2(C1=O)C(=O)N(CC(=O)O)c1ccc(Cl)cc12` (configuration not stated) [2-{5-chloro-1'-[(3-methyl-5-phenyl-1,2-oxazol-4-yl)methyl]-1,2-dihydrospiro[indole-3,3'-pyrrolidine]-2,2',5'-trione}acetic acid]: the pEC50 was 7.64.

As for `Cc1nc(CN2C(=O)CC3(C2=O)C(=O)N(CC(=O)O)c2ccc(Cl)cc23)cs1` (configuration not stated) [2-{5-chloro-1'-[(2-methyl-1,3-thiazol-4-yl)methyl]-1,2-dihydrospiro[indole-3,3'-pyrrolidine]-2,2',5'-trione}acetic acid], the pEC50 is 6.63.
